Laboratory results reported in ChEMBL document CHEMBL5550177, “Design and synthesis of matrine derivatives for anti myocardial ischemia-reperfusion injury by promoting angiogenesis” (Bioorg Med Chem, 2024).
Active and inactive are the calls of the source. The rule behind the calls is not given here.

How the values were obtained:
H9c2 [1] = test: Cytotoxicity against rat H9c2 cells assessed as cell viability upto 20 uM incubated for 24 hrs by CCK-8 assay; assay type: toxicity, cell-based; conditions: h9c2, 24 h
Rattus norvegicus [2] = test: Cardioprotective activity in myocardial ischemia/reperfusion induced rat injury model assessed as improvement in cardiac injury at 5 to 20 mg/kg, iv pretreated with compound followed by MI/R induction measured after 30 mins by H and E staining based light microscopic analysis; assay type: functional, organism-based; conditions: dose 5-20 mg/kg
Rattus norvegicus [3] = test: Cardioprotective activity in myocardial ischemia/reperfusion induced rat injury model assessed as reduction in myocardial fiber disruption at 5 to 20 mg/kg, iv pretreated with compound followed by MI/R induction measured after 30 mins by H and E staining based light microscopic analysis; assay type: functional, organism-based; conditions: dose 5-20 mg/kg
H9c2 [4] = test: Protection against H/R induced damage in rat H9c2 cells assessed as increase in cell viability at 1 to 20 umol/L preincubated for 2 hrs followed by hypoxic reoxygenation induction by CCK-8 assay; assay type: functional, cell-based; conditions: dose 1-20 µmol/L
H9c2 [5] = test: Protection against H/R induced damage in rat H9c2 cells assessed as increase in cell viability at 1 to 20 umol/L preincubated for 2 hrs followed by hypoxic reoxygenation induction by CCK-8 assay (reference value: 45.1 +/- 2.1%); assay type: functional; conditions: dose 1-20 µmol/L; at 1 to 20 µM
H9c2 [6] = test: Protection against H/R induced necrosis in rat H9c2 cells assessed as reduction in myocardial cell death preincubated with compound followed by hypoxic reoxygenation induction by Hoechst 33258/PI double staining based fluorescence microscopic analysis; assay type: functional; conditions: dose 5-20 µM
H9c2 [7] = test: Protection against H/R induced necrosis in rat H9c2 cells assessed as reduction in myocardial cell death at 5 to 20 uM preincubated with compound followed by hypoxic reoxygenation induction by Hoechst 33258/PI double staining based fluorescence microscopic analysis; assay type: functional; conditions: dose 5-20 µM
H9c2 [8] = test: Protection against H/R induced damage in rat H9c2 cells assessed as reduction in LDH level at 20 uM preincubated with compound followed by hypoxic reoxygenation induction; assay type: functional, cell-based
H9c2 [9] = test: Protection against H/R induced damage in rat H9c2 cells assessed as reduction in CK-MB level at 20 uM preincubated with compound followed by hypoxic reoxygenation induction; assay type: functional, cell-based
H9c2 [10] = test: Antioxidant activity against H/R induced damage in rat H9c2 cells assessed as increase in SOD level preincubated with compound followed by hypoxic reoxygenation induction; assay type: functional, cell-based; conditions: dose 5-20 µM
H9c2 [11] = test: Antioxidant activity against H/R induced damage in rat H9c2 cells assessed as reduction in MDA level at 5 to 20 uM preincubated with compound followed by hypoxic reoxygenation induction; assay type: functional, cell-based; conditions: dose 5-20 µM
[12] = Toxicity in rat assessed as change in organ morphology at 20 to 100 mg/kg, iv measured after 14 days; assay type: organism-based; conditions: in vivo, 336 h, dose 20-100 mg/kg, time 14 day
[13] = Toxicity in rat assessed as change in organ color at 20 to 100 mg/kg, iv measured after 14 days; assay type: organism-based; conditions: in vivo, 336 h, dose 20-100 mg/kg, time 14 day
[14] = Toxicity in rat assessed as change in organ index at 20 to 100 mg/kg, iv measured after 14 days; assay type: organism-based; conditions: in vivo, 336 h, dose 20-100 mg/kg, time 14 day
Rattus norvegicus [15] = test: Cardioprotective activity in myocardial ischemia/reperfusion induced rat injury model assessed as improvement in damaged ventricular systolic function at 5 to 20 mg/kg, iv measured after 30 mins; assay type: functional, organism-based; conditions: dose 5-20 mg/kg
Rattus norvegicus [16] = test: Cardioprotective activity in myocardial ischemia/reperfusion induced rat injury model assessed as improvement in damaged left ventricular systolic pressure at 5 to 20 mg/kg, iv measured after 30 mins; assay type: functional, organism-based; conditions: dose 5-20 mg/kg
Rattus norvegicus [17] = test: Cardioprotective activity in myocardial ischemia/reperfusion induced rat injury model assessed as improvement in damaged left ventricular diastolic pressure at 5 to 20 mg/kg, iv measured after 30 mins; assay type: functional, organism-based; conditions: dose 5-20 mg/kg
Rattus norvegicus [18] = test: Cardioprotective activity in myocardial ischemia/reperfusion induced rat injury model assessed as prevention of average femoral artery blood pressure decrease at 5 to 20 mg/kg, iv measured after 30 mins; assay type: functional, organism-based; conditions: dose 5-20 mg/kg
Rattus norvegicus [19] = test: Cardioprotective activity in myocardial ischemia/reperfusion induced rat injury model assessed as prevention of heart rate decrease at 5 to 20 mg/kg, iv measured after 30 mins; assay type: functional, organism-based; conditions: dose 5-20 mg/kg
Rattus norvegicus [20] = test: Cardioprotective activity in iv dosed myocardial ischemia/reperfusion induced rat injury model assessed as reduction in area of infraction pretreated with compound followed by MI/R induction measured after 30 mins by TTC staining based assay; assay type: functional, organism-based; conditions: dose 5-20 mg/kg
Rattus norvegicus [21] = test: Cardioprotective activity in iv dosed myocardial ischemia/reperfusion induced rat injury model assessed as reduction in serum LDH level pretreated with compound followed by MI/R induction measured after 30 mins; assay type: functional, organism-based; conditions: dose 5-20 mg/kg
Rattus norvegicus [22] = test: Cardioprotective activity in iv dosed myocardial ischemia/reperfusion induced rat injury model assessed as reduction in serum CK-MB level pretreated with compound followed by MI/R induction measured after 30 mins; assay type: functional, organism-based; conditions: dose 5-20 mg/kg
Rattus norvegicus [23] = test: Antioxidant activity in myocardial ischemia/reperfusion induced rat injury model assessed as decrease in MDA level at 5 to 20 mg/kg, iv pretreated with compound followed by MI/R induction measured after 30 mins; assay type: functional, organism-based; conditions: dose 5-20 mg/kg
Rattus norvegicus [24] = test: Antioxidant activity in myocardial ischemia/reperfusion induced rat injury model assessed as increase in SOD level at 5 to 20 mg/kg, iv pretreated with compound followed by MI/R induction measured after 30 mins; assay type: functional, organism-based; conditions: dose 5-20 mg/kg
H9c2 [25] = test: Cardioprotective activity against H/R induced damage in rat H9c2 cells assessed as upregulation of ADCY5 gene expression at 5 to 20 uM by RT-qPCR assay; assay type: functional, cell-based; conditions: dose 5-20 µM
H9c2 [26] = test: Cardioprotective activity against H/R induced damage in rat H9c2 cells assessed as upregulation of CREB3L4 gene expression at 5 to 20 uM by RT-qPCR assay; assay type: functional, cell-based; conditions: dose 5-20 µM
H9c2 [27] = test: Cardioprotective activity against H/R induced damage in rat H9c2 cells assessed as upregulation of VEGFA gene expression at 5 to 20 uM by RT-qPCR assay; assay type: functional, cell-based; conditions: dose 5-20 µM
H9c2 [28] = test: Cardioprotective activity against H/R induced damage in rat H9c2 cells assessed as reduction in PP2B gene expression by RT-qPCR assay; assay type: functional, cell-based; conditions: dose 5-20 µM
H9c2 [29] = test: Cardioprotective activity against H/R induced damage in rat H9c2 cells assessed as reduction in BNP gene expression by RT-qPCR assay; assay type: functional, cell-based; conditions: dose 5-20 µM
H9c2 [30] = test: Cardioprotective activity against MI/R induced rat H9c2 cells assessed as upregulation of ADCY5 protein expression at 5 to 20 uM pretreated with compound followed by MI/R induction by Western blotting assay; assay type: functional, cell-based; conditions: dose 5-20 µM
H9c2 [31] = test: Cardioprotective activity against MI/R induced rat H9c2 cells assessed as upregulation of CREB3L4 protein expression at 5 to 20 uM pretreated with compound followed by MI/R induction by Western blotting assay; assay type: functional, cell-based; conditions: dose 5-20 µM
H9c2 [32] = test: Cardioprotective activity against MI/R induced rat H9c2 cells assessed as upregulation of VEGFA protein expression at 5 to 20 uM pretreated with compound followed by MI/R induction by Western blotting assay; assay type: functional, cell-based; conditions: dose 5-20 µM
H9c2 [33] = test: Cardioprotective activity against MI/R induced rat H9c2 cells assessed as reduction in PP2B protein expression at 5 to 20 uM pretreated with compound followed by MI/R induction by Western blotting assay; assay type: functional, cell-based; conditions: dose 5-20 µM
H9c2 [34] = test: Cardioprotective activity against MI/R induced rat H9c2 cells assessed as reduction in BNP protein expression at 5 to 20 uM pretreated with compound followed by MI/R induction by Western blotting assay; assay type: functional, cell-based; conditions: dose 5-20 µM
Chorioallantoic membrane = test: Angiogenesis activity in chicken embryo chorioallantoic membrane assessed as increase in total number of blood vessels incubated for 132 hrs by CAM assay; assay type: functional, tissue-based; conditions: Gallus gallus
[35] = Drug accumulation in rat heart at 5 to 20 mg/kg, iv measured after 2 hrs by HPLC analysis; assay type: ADME, organism-based; conditions: in vivo, dose 5-20 mg/kg

O=C(CCC[C@@H]1[C@H]2CCCN3CCC[C@@H](CN1Cc1ccccc1)[C@@H]23)NC1CCCC1
Activity (H9c2 [1]): Non-Toxic

CC(C)NCC(O)COc1ccc(CC(N)=O)cc1 (configuration not stated)
Activity (Rattus norvegicus [2]): Active | Activity (Rattus norvegicus [3]): Active

CCOCCNC(=O)CCC[C@@H]1[C@H]2CCCN3CCC[C@@H](CN1Cc1ccccc1)[C@@H]23
Activity (H9c2 [1]): Non-Toxic

O=C(CCC[C@@H]1[C@H]2CCCN3CCC[C@@H](CN1Cc1ccccc1)[C@@H]23)NC1CC1
Activity (H9c2 [1]): Non-Toxic

O=C(CCC[C@@H]1[C@H]2CCCN3CCC[C@@H](CN1Cc1ccccc1)[C@@H]23)NCCOCCO
Activity (H9c2 [4]): Active

O=C(CCC[C@@H]1[C@H]2CCCN3CCC[C@@H](CN1Cc1ccccc1)[C@@H]23)NCCOCCOC(=O)c1sccc1Cl
Activity (H9c2 [5]): 93.2% | Activity (H9c2 [6]): Dose-Dependent Effect | Activity (H9c2 [7]): Active | Activity (H9c2 [8]): Active | Activity (H9c2 [9]): Active | Activity (H9c2 [10]): Dose-Dependent Effect | Activity (H9c2 [11]): Active | Activity [12]: Non-Toxic | Activity [13]: Non-Toxic | Activity [14]: Non-Toxic | Activity (Rattus norvegicus [15]): Active | Activity (Rattus norvegicus [16]): Active | Activity (Rattus norvegicus [17]): Active | Activity (Rattus norvegicus [18]): Active | Activity (Rattus norvegicus [19]): Active | Activity (Rattus norvegicus [20]): Dose-Dependent Effect | Activity (Rattus norvegicus [2]): Active | Activity (Rattus norvegicus [3]): Active | Activity (Rattus norvegicus [21]): Dose-Dependent Effect | Activity (Rattus norvegicus [22]): Dose-Dependent Effect | Activity (Rattus norvegicus [23]): Active | Activity (Rattus norvegicus [24]): Active | Activity (H9c2 [25]): Active | Activity (H9c2 [26]): Active | Activity (H9c2 [27]): Active | Activity (H9c2 [28]): Dose-Dependent Effect | Activity (H9c2 [29]): Dose-Dependent Effect | Activity (H9c2 [30]): Active | Activity (H9c2 [31]): Active | Activity (H9c2 [32]): Active | Activity (H9c2 [33]): Active | Activity (H9c2 [34]): Active | Activity (Chorioallantoic membrane): Active | Drug uptake [35]: Active

O=C(CCC[C@@H]1[C@H]2CCCN3CCC[C@@H](CN1Cc1ccccc1)[C@@H]23)NC1CCCCC1
Activity (H9c2 [1]): Non-Toxic

O=C(CCC[C@@H]1[C@H]2CCCN3CCC[C@@H](CN1Cc1ccccc1)[C@@H]23)Nc1cccnn1
Activity (H9c2 [1]): Non-Toxic

O=C(CCC[C@@H]1[C@H]2CCCN3CCC[C@@H](CN1Cc1ccccc1)[C@@H]23)NCCC1=CC=CCC1=S
Activity (H9c2 [1]): Non-Toxic

O=C1CCC[C@@H]2[C@H]3CCCN4CCC[C@@H](CN12)[C@@H]34 [MATRINE]
Activity (H9c2 [1]): Non-Toxic

O=C(CCC[C@@H]1[C@H]2CCCN3CCC[C@@H](CN1Cc1ccccc1)[C@@H]23)NCCc1c[nH]c2ccccc12
Activity (H9c2 [1]): Non-Toxic

O=C(CCC[C@@H]1[C@H]2CCCN3CCC[C@@H](CN1Cc1ccccc1)[C@@H]23)NCCc1ccc(O)cc1
Activity (H9c2 [1]): Non-Toxic

O=C(CCC[C@@H]1[C@H]2CCCN3CCC[C@@H](CN1Cc1ccccc1)[C@@H]23)NC1CCC1
Activity (H9c2 [1]): Non-Toxic
